Assay results published in patent US12029217B2, “Safened compositions comprising pyridine carboxylate herbicides and isoxadifen” (Corteva Agriscience LLC, priority 2018, dated 2024).

Experiments:
Assay type in all cases: in vivo
[1] = system: Sorghum vulgare (sorghum); experiment: Greenhouse postemergence visual injury, sorghum (SORVU); conditions: Example 5
Description: (§1) Seeds of the desired test plant species were planted in a 90:10% v/v (volume/volume) mixture of PRO-MIX® BX (Premier Tech Horticulture, Quakertown, PA, USA) and PROFILE® GREENS GRADE™ (Profile Products LLC, Buffalo Grove, IL, USA) planting mixture, which typically has a pH of 5.2 to 6.2 and an organic matter content of at least 50 percent, in plastic pots with a surface area of 103.2 square centimeters (cm^2). When required to ensure good germination and healthy plants, a fungicide treatment and/or other chemical or physical treatment was applied. The plants were grown for 7-36 days (d) in a greenhouse with an approximate 14-hour (h) photo-period which was maintained at about 23° C. during the day and 22° C. during the night. Nutrients and water were added on a regular basis and supplemental lighting was provided with overhead metal halide 1000-Watt lamps as necessary. The plants were employed for testing when they reached the second or third true leaf stage.
(§2) Emulsifiable concentrates of each of each pyridine carboxylate herbicide (Compound A or Compound B) were prepared at 100 grams acid equivalent per liter (g ae/L). An aliquot of each emulsifiable concentrate was placed in a 25 mL glass vial and diluted with an aqueous mixture of 1.25% (v/v) ACTIROB® B esterified rapeseed oil (Bayer Crop Science, Research Triangle Park, NC, USA) or MSO® Concentrate with LECI-TECH® methylated soybean oil (Loveland Products, Loveland, CO, USA) to obtain concentrated stock solutions at the highest application rate for each herbicide, based upon a 12 milliliter (mL) application volume at a rate of 187 liters per hectare (L/ha). The concentrated stock solutions were further diluted with an aqueous mixture of 1.25% v/v ACTIROB® B or MSO® Concentrate with LECI-TECH® to obtain stock solutions at reduced application rates for each herbicide. Spray solutions of the herbicide combinations (Compound A or Compound B plus safener) were prepared by adding weighed amounts or aliquots of the safener to the stock solutions of Compound A or Compound B to form 12-mL spray solutions in two-way combinations.
(§3) The spray solutions were applied to the plant material with an overhead Mandel track sprayer equipped with 8002E nozzles calibrated to deliver 187 L/ha over an application area of 0.503 square meters (m^2) at a spray height of 18 inches (43 centimeters (cm)) above the average plant canopy. Control plants were sprayed in the same manner with the solvent blank. All herbicide (component a) application rates are given as “g ae/ha” and all safener (component b) application rates are given as “g ai/ha.”
(§4) The treated plants and control plants were placed in a greenhouse as described above and watered by sub-irrigation to prevent wash-off of the test compounds. After 20-22 d, the condition of the test plants as compared with that of the control plants was determined visually and scored on a scale of 0 to 100 percent where 0 corresponds to no injury and 100 corresponds to complete kill.

[2] = system: Amaranthus palmeri (glyphosate-resistant Palmer amaranth); experiment: Greenhouse postemergence visual injury, glyphosate-resistant Palmer amaranth (AMAPA-Gly); conditions: Example 7
Description: as §1, §2
(§5) The spray solutions were applied to the plant material with an overhead Mandel track sprayer equipped with 8002E nozzles calibrated to deliver 187 L/ha over an application area of 0.503 square meters (m^2) at a spray height of 18 inches (43 centimeters (cm)) above the average plant canopy. […]
as §4

[3] = system: Alopecurus myosuroides (blackgrass); experiment: Greenhouse postemergence visual injury, blackgrass (ALOMY); conditions: Example 6
Description: as §1, §2, §5, §4

[4] = system: Erigeron canadensis (Canada horseweed); experiment: Greenhouse postemergence visual injury, Canada horseweed (ERICA)
Description: as §1, §2, §3, §4

[5] = system: Amaranthus retroflexus (pigweed); experiment: Greenhouse postemergence visual injury, pigweed (AMARE)
Description: as §1, §2, §3, §4

[6] = system: Triticum aestivum (spring wheat); experiment: Greenhouse postemergence visual injury, spring wheat (TRZAS)
Description: as §1, §2, §3, §4

[7] = system: Chenopodium album L. (common lambsquarters); experiment: Greenhouse postemergence visual injury, common lambsquarters (CHEAL); conditions: Example 6
Description: as §1, §2, §5, §4

[8] = system: Amaranthus tamariscinus (common water hemp); experiment: Greenhouse postemergence visual injury, common water hemp (AMATA); conditions: Example 7
Description: as §1, §2, §5, §4

[9] = system: Eleusine indica (goosegrass); experiment: Greenhouse postemergence visual injury, goosegrass (ELEIN); conditions: Example 7
Description: as §1, §2, §5, §4

[10] = system: Digitaria sanguinalis (large crabgrass); experiment: Greenhouse postemergence visual injury, large crabgrass (DIGSA)
Description: as §1, §2, §3, §4

[11] = system: Viola tricolor (wild pansy); experiment: Greenhouse postemergence visual injury, wild pansy (VIOTR); conditions: Example 6
Description: as §1, §2, §5, §4

[12] = system: Setaria faberi (giant foxtail); experiment: Greenhouse postemergence visual injury, giant foxtail (SETFA)
Description: as §1, §2, §3, §4

[13] = system: Salsola kali (Russian thistle); experiment: Greenhouse postemergence visual injury, Russian thistle (SASKR); conditions: Example 1
Description: as §1, §2, §5, §4

[14] = system: Cyperus esculentus (nutsedge); experiment: Greenhouse postemergence visual injury, nutsedge (CYPES)
Description: as §1, §2, §3, §4

[15] = system: Abutilon theophrasti (velvetleaf); experiment: Greenhouse postemergence visual injury, velvetleaf (ABUTH); conditions: Example 6
Description: as §1, §2, §5, §4

[16] = system: Kochia scoparia (herbicide-resistant kochia); experiment: Greenhouse postemergence visual injury, herbicide-resistant kochia (KCHSC-R); conditions: Example 6
Description: as §1, §2, §5, §4

[17] = system: Lolium multiflorum (Italian ryegrass); experiment: Greenhouse postemergence visual injury, Italian ryegrass (LOLMU)
Description: as §1, §2, §3, §4

[18] = system: Sorghum halepense (Johnson grass); experiment: Greenhouse postemergence visual injury, Johnson grass (SORHA)
Description: as §1, §2, §3, §4

Kochia scoparia (kochia) = experiment: Greenhouse postemergence visual injury, kochia (KCHSC); conditions: Example 6
Description: as §1, §2, §5, §4

[19] = isoxadifen-ethyl 10 g/ha, Example 7
[20] = isoxadifen-ethyl 20 g/ha, Example 6
[21] = isoxadifen-ethyl 20 g/ha, Example 7
[22] = isoxadifen-ethyl 40 g/ha, Example 6
[23] = isoxadifen-ethyl 80 g/ha, Example 6
[24] = isoxadifen-ethyl 20 g/ha, Example 4
[25] = isoxadifen-ethyl 20 g/ha, Example 5
[26] = isoxadifen-ethyl 40 g/ha, Example 4
[27] = isoxadifen-ethyl 40 g/ha, Example 5
[28] = isoxadifen-ethyl 80 g/ha, Example 4
[29] = isoxadifen-ethyl 80 g/ha, Example 5
[30] = isoxadifen-ethyl 120 g/ha, Example 4
[31] = isoxadifen-ethyl 120 g/ha, Example 5

Measured: % visual injury, Ob

CCOC(=O)C1=NOC(c2ccccc2)(c2ccccc2)C1 [Isoxadifen-ethyl, isoxadifen-ethyl]
0%: [1]; isoxadifen-ethyl 20 g/ha | [1]; isoxadifen-ethyl 40 g/ha | [1]; isoxadifen-ethyl 80 g/ha | [1]; isoxadifen-ethyl 120 g/ha | [2]; isoxadifen-ethyl 10 g/ha | [2]; isoxadifen-ethyl 20 g/ha | [3]; isoxadifen-ethyl 20 g/ha | [3]; isoxadifen-ethyl 40 g/ha | [3]; isoxadifen-ethyl 80 g/ha | [4]; [19] | [4]; [20] | [4]; [21] | [4]; [22] | [4]; [23] | [5]; [24] | [5]; [25] | [5]; [20] | [5]; [26] | [5]; [27] | [5]; [22] | [5]; [28] | [5]; [29] | [5]; [23] | [5]; [30] | [5]; [31] | [6]; isoxadifen-ethyl 10 g/ha, Example 1 | [6]; isoxadifen-ethyl 20 g/ha, Example 1 | [6]; isoxadifen-ethyl 20 g/ha, Example 2 | [6]; [24] | [6]; isoxadifen-ethyl 40 g/ha, Example 1 | [6]; isoxadifen-ethyl 40 g/ha, Example 2 | [6]; [26] | [6]; isoxadifen-ethyl 80 g/ha, Example 2 | [6]; [28] | [6]; isoxadifen-ethyl 120 g/ha, Example 2 | [6]; [30] | [7]; isoxadifen-ethyl 20 g/ha | [7]; isoxadifen-ethyl 40 g/ha | [7]; isoxadifen-ethyl 80 g/ha | [8]; isoxadifen-ethyl 10 g/ha | [8]; isoxadifen-ethyl 20 g/ha | [9]; isoxadifen-ethyl 10 g/ha | [9]; isoxadifen-ethyl 20 g/ha | [10]; [19] | [10]; [20] | [10]; [21] | [10]; [22] | [10]; [23] | [11]; isoxadifen-ethyl 20 g/ha | [11]; isoxadifen-ethyl 40 g/ha | [11]; isoxadifen-ethyl 80 g/ha | [12]; [19] | [12]; [20] | [12]; [21] | [12]; [22] | [12]; [23] | [13]; isoxadifen-ethyl 10 g/ha | [13]; isoxadifen-ethyl 20 g/ha | [13]; isoxadifen-ethyl 40 g/ha | [14]; [24] | [14]; [25] | [14]; [20] | [14]; [26] | [14]; [27] | [14]; [22] | [14]; [28] | [14]; [29] | [14]; [23] | [14]; [30] | [14]; [31] | [15]; isoxadifen-ethyl 20 g/ha | [15]; isoxadifen-ethyl 40 g/ha | [15]; isoxadifen-ethyl 80 g/ha | [16]; isoxadifen-ethyl 20 g/ha | [16]; isoxadifen-ethyl 40 g/ha | [16]; isoxadifen-ethyl 80 g/ha | [17]; [19] | [17]; [20] | [17]; [21] | [17]; [22] | [17]; [23] | [18]; [19] | [18]; [20] | [18]; [21] | [18]; [22] | [18]; [23] | Kochia scoparia (kochia); isoxadifen-ethyl 20 g/ha | Kochia scoparia (kochia); isoxadifen-ethyl 40 g/ha | Kochia scoparia (kochia); isoxadifen-ethyl 80 g/ha
